Results reported in paper PMC10761119, “Phosphorylation-state dependent intraneuronal sorting of Aβ differentially impairs autophagy and the endo-lysosomal system” (Autophagy, 2023).

What was measured:
SH-SY5Y cells [1] = experiment: Immunocytochemistry colocalization of Aβ with LC3 and LAMP2; format: cell-based, human; conditions: Aβ 1 µM, 24 h, n = 6, N = 3
Method: Cells were cultured on glass coverslips and treated similarly as mentioned above. After treatment, cells were subsequently washed and fixed with 4% paraformaldehyde in PBS for 15 min. […] Incubation with primary antibodies (respective dilutions in blocking buffer) was performed overnight at 4°C. Next day, coverslips were washed and incubated with respective secondary antibodies (respective dilutions in blocking buffer) for 1 h at RT. Removal of the secondary antibody solution was followed by washes with PBS (thrice) and distilled water (once) and coverslips were mounted on the slides using ImmuMount (ThermoFisher Scientific - Shandon EprediaTM, 9990412). […] Quantification of the number of autophagic compartments (Figure S6B) was done manually using a 10 μm^2 ROI grids, placed in the cytosolic region of the individual cells using the “rule of L” counting method. […] All images were processed and analyzed using Fiji ImageJ software. […] Distance from the plaque core (Figure 1B) was measured using the concentric circles plugin module. Fluorescence intensity of the green channel (Figure S3A-B), and the number of neurons positive for Aβ signals (Figure S3-D) were quantified using the processing module of Keyence software. […] Intensity of green and red channel for a particular ROI was calculated and ratios of the individual values were computed (Figure 6B and S7A). […]

SH-SY5Y cells [2] = experiment: Number and perinuclear/peripheral positioning of LAMP2-positive compartments; format: cell-based, human; conditions: Aβ 1 µM, 24 h
Method: Cells were cultured on glass coverslips and treated similarly as mentioned above. After treatment, cells were subsequently washed and fixed with 4% paraformaldehyde in PBS for 15 min. Cells were then permeabilized with 0.25% Triton X-100 in PBS for 1 min, followed by blocking with 2.5% BSA, 0.125% Triton X-100 in PBS. Incubation with primary antibodies (respective dilutions in blocking buffer) was performed overnight at 4°C. Next day, coverslips were washed and incubated with respective secondary antibodies (respective dilutions in blocking buffer) for 1 h at RT. Removal of the secondary antibody solution was followed by washes with PBS (thrice) and distilled water (once) and coverslips were mounted on the slides using ImmuMount (ThermoFisher Scientific – Shandon Epredia™, 9990412). For surface staining without permeabilization, Triton X-100 was not used in any solution during the staining procedure.
All images were processed and analyzed using Fiji ImageJ software. Mander’s overlap coefficient (Figure 1B–D; Figure 2B–F; Figure 4B–F; Figure 6E; S2B, D; S4B, D; S6D, F) analysis was done using the colocalization processing module of the Fiji ImageJ plugin. Distance from the plaque core (Figure 1B) was measured using the concentric circles plugin module. Fluorescence intensity of the green channel (Figure S3A-B), and the number of neurons positive for Aβ signals (Figure S3-D) were quantified using the processing module of Keyence software. […] Intensity of green and red channel for a particular ROI was calculated and ratios of the individual values were computed (Figure 6B and S7A). For computing the number of mCherry^+GFP^± vesicles or per cell (Figure 6D and S7B), cell outline was drawn manually and number of vesicles per cell (nucleus count – DAPI) was calculated. […] Due to slight variability in transfection efficiency or the number of cells in different experimental set-ups, the readings from each experiment were averaged and normalized to the control cells from that particular set. […]

Substance | Accumulation in LC3-positive autophagosomal structures (SH-SY5Y cells [1]) | Number of LAMP2-positive vesicles (SH-SY5Y cells [2]) | Colocalization with LAMP2 (SH-SY5Y cells [1]) | Ratio of perinuclear to peripheral lysosomes (SH-SY5Y cells [2]; LAMP2-positive compartments, perinuclear <2 µm from nucleus, control 0.61 ± 0.12, n = 12, N = 3)
amyloid-β phosphorylated at serine residue 8 [p-Ser8Aβ] | preferential accumulation |  |  | 
amyloid-β phosphorylated at serine residue 26 [p-Ser26Aβ] |  | significantly increased | predominant colocalization | 
non-phosphorylated amyloid-β [npAβ, reference compound] |  | significantly increased |  | 0.99 ± 0.16
